Data as given in US20130115256A1, “METHODS FOR TREATING OR PREVENTING VASCULAR GRAFT FAILURE” (priority 2010, published 2013).

Experiments:
[1] = target: T1, MKK6 (Homo sapiens, UniProt P52564); assay: MKK6 radiometric kinase assay; assay type: biochemical; details: MMI-0100 100 μM; remaining kinase activity
T1 construct: purchased Millipore (KinaseProfiler service)
T1 sequence (P52564 1-334): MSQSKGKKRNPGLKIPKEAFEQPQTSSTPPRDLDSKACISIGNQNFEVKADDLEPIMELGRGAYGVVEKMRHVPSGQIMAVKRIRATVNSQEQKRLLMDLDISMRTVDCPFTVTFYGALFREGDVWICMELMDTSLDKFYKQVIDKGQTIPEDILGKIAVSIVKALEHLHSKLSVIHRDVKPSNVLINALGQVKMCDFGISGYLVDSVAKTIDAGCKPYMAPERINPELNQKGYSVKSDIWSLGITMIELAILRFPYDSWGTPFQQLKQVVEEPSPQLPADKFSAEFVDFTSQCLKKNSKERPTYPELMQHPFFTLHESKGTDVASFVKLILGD
Excerpt: (§1) A commercial radiometric assay service was used to test the specificity and potency of MMI-0100 ([…]; SEQ ID NO: 1) by measuring its half maximal inhibitory concentrations (IC50). This quantitative assay measures how much MK2 inhibitor (MMI-0100; […] (SEQ ID NO: 1)) is needed to inhibit 50% of a given biological process or component of a process (i.e., an enzyme, cell, or cell receptor). Specifically, in these assays, a positively charged substrate is phosphorylated with a radiolabeled phosphate group from an ATP if the kinase is not inhibited by an inhibitor peptide. The positively charged substrate then is attracted to a negatively charged filter membrane, quantified with a scintillation counter, and compared to a 100% activity control. ATP concentrations within 15 μM of the apparent Km for ATP were chosen since an ATP concentration near the Km may allow for the kinases to have the same relative amount of phosphorylation activity. The individual conditions for each radiometric assay are as follows.
The reaction was initiated by adding the MgATP. After incubation for 40 minutes at room temperature, 5 μl of the incubation mix was used to initiate the p38MAPK radiometric assay described above.
IC50 values for inhibitor peptides were determined using Millipore's IC50 Profiler Express service. The IC50 value was estimated from a 10-point curve of one-half log dilutions. […]

[2] = system: mouse vein graft (intrathoracic inferior vena cava); assay: Mouse vein graft model; assay type: in vivo
Procedure: 12-week-old C57BL/6 wild type mice (Harlan) were used for all experiments, as previously described (Muto, A. et al., J. Exp. Med., 2011, 208(3): 561-575, incorporated herein by reference in its entirety). […] Prior to implantation, the vein was treated ex vivo with 100 μM of MMI-0100 ([…] (SEQ ID NO: 1)) peptide solution, or control PBS solution, for 20 minutes at room temperature.
To implant the vein graft, a midline incision was made in the abdomen of a recipient mouse and the infrarenal abdominal aorta was exposed. The abdominal aorta was temporarily occluded with atraumatic micro-clamps and a segment corresponding to the length of the vein graft was excised. The vein was sutured into the arterial circulation using 10-0 nylon in continuous fashion.
Vein grafts were followed postoperatively using the Vevo770® High-Resolution Imaging System (VisualSonics, Toronto, Canada), with weekly measurements of graft wall thickness. At 28 days after surgery, mice were sacrificed to allow explantation of the vein graft. Tissue was either frozen with RNA stabilization reagent (Qiagen) or explanted for paraffin embedding after circulatory flushing with ice-cold PBS followed by 4% paraformaldehyde perfusion-fixation. Vein graft wall thickness, lumen diameter, and outer wall diameter (elastic lamina) were measured in elastin-stained sections using computer morphometry (ImageJ).
Vein graft samples were fixed as described above and harvested for histology. Specimens were embedded in paraffin and cut in cross section (5 μm). Hematoxylin & Eosin, Masson trichrome, and van Gieson elastin staining were performed for all samples. Cells were cultured on gelatin-coated cover slips and fixed with methanol.
All sections were treated for antigen retrieval using 10 mmol/L citrate buffer (pH 6.0) prior to boiling or proteinase K (20 μg/ml) treatment, at room temperature, for 10-15 minutes. Immunohistochemical detection was performed using DAB as well as NovaRED® substrate (Vector). Sections were counterstained with Mayer's Hematoxylin.
The efficacy of MMI-0100 ([…]; SEQ ID NO: 1) in treating intimal hyperplasia in vivo was examined using a mouse model of vein bypass graft. […] The IVC was soaked in a 100 μM solution of MMI-0100 ([…]; SEQ ID NO: 1) at room temperature for 20 minutes prior to implantation into a host (C57BL/6J) mouse to bypass the infrarenal aorta. Five treated and six untreated veins were transplanted for a total of 11 transplanted animals. Vein graft wall thickness was determined using a Vevo7700 ultrasound imaging system at each week. […]

[3] = system: P38MAPK; assay: p38 MAPK radiometric kinase assay; assay type: biochemical; details: MMI-0100 100 μM; remaining kinase activity
Excerpt: as §1, with “ATP concentrations within 15 μM of the apparent Km for ATP were chosen since an ATP concentration near the Km may allow for the kinases to have the same relative amount of phosphorylation activity. The individual conditions for each radiometric assay are as follows.” left out
For the p38 MAPK (p38 Mitogen-Activated Protein Kinase) radiometric assay, 5-10 mU of p38 MAPK was incubated with 25 mM Tris pH 7.5, 0.02 mM EGTA, 0.33 mg/mL myelin basic protein (a substrath for p38 MAPK), 10 mM MgAcetate, and 10 μM of [y-^33P-ATP] in the final reaction volume of 25 μl. […] The washed P30 filtermat was dried and its radioactivity was measured by scintillation counter.
IC50 values for inhibitor peptides were determined using Millipore's IC50 Profiler Express service. […]

Sequence: YARAAARQARAKALARQLGVAA [MMI-0100]
- Percent Activity, MKK6 [1]: 50%
- reduced wall thickness compared to control grafts, histological staining ([2]; 100 μM ex vivo 20 minutes, 4 weeks): 72%
- F4/80-positive cells infiltrating into vein grafts ([2]; 100 μM ex vivo 20 minutes, 4 weeks, immunohistochemistry): fewer
- vein graft wall thickness ratio by ultrasound ([2]; follow-up study, 100 μM ex vivo 20 minutes, 4 weeks (control grafts 4.7-fold)): 2.6 fold
- grafted vessel wall thickness relative to the originally harvested IVC ([2]; vein soaked ex vivo in 100 μM for 20 minutes, 4 weeks after graft, ultrasound (control almost five times)): about 2.5 times
- Percent Activity, P38MAPK [3]: 60%
